Assay results as given in patent US4716153A, “Stable oral preparation of macrolide antibiotics and method for stabilizing the same” (priority 1982, dated 1987).
Where two headings read alike, the source gives them in different places.

Experiments:
[1] = Elution rate of TMS-19-Q with glycine and citric or tartaric acid in diluted physiological saline solution; format: physicochemical; conditions: for elution rate with 40 mg or more of citric acid: citric acid 40 mg or more, saline + water
Description: To 40 ml of physiological saline solution 120 ml of water was added, and after the solution was placed in a vessel whose temperature was kept constant in a thermostat at 37° C., 200 mg of TMS-19-Q, 340 mg of glycine and 0-80 mg of citric acid were added, and the mixture was stirred by a magnetic stirrer. Then sampling thereof was conducted in a lapse of time (at 5 minutes, 15 minutes and 30 minutes) to observe absorbance (wavelength: 232 nm) and elution rate was calculated.
To 40 ml of physiological saline solution 120 ml of water was added, and after the solution was kept in a vessel whose temperature was kept constant in a thermostat controlled at 37° C., 200 mg of TMS-19-Q, 340 mg of glycine and 0-80 mg of tartaric acid were added, and the same procedures as those of Example 27 were followed to examine the elution rate of TMS-19-Q.

[2] = Stability in Japan Pharmacopoeia 1st solution (pH 1.2) at 37° C., with or without stabilizer (TLC densitometry, 232 nm); format: physicochemical
Description: The stabilizers showing pH 3-10 used in the invention may be substances having a buffering or antacid action and showing pH 3-10, preferably 5.5-6.5. These are, for example, neutral amino acids or their basic salts, basic salts of acidic amino acids, basic amino acids,basic salts of organic carboxylic acids,basic salts of polybasic organic carboxylic acids, basic salts of uronic acid or inorganic salt antacids. The neutral amino acids or basic salts thereof include glycine, alanine, aminobutyric acid, proline, leucine, isoleucine, methionine, threonine, serine, valine, or their aluminium salts, for example aluminium glycinate. Among these, glycine, alanine and aluminium glycinate, both of which show pH 5.5-6.5, are preferable. The basic salts of acidic amino acid include monobasic salts such as a monosodium, monopotassium or magnesium salt of glutaminic or aspartic acid. Among these monobasic salts, monosodium glutamate or monosodium aspartate is preferable. The basic amino acids include arginine, glutamine, asparagine, citrulin, tryptophane and histidine. Especially, histidine is preferable. The basic salts of monobasic organic carboxylic acid include basic salts such as sodium, potassium, magnesium or aluminium salts of saturated monobasic organic carboxylic acids such as acetic acid and propionic acid, of unsaturated monobasic organic acids such as acrylic acid, crotonic acid and vinylacetic acid, and of other monobasic organic acids such as lactic acid, pyruvic acid, glyceric acid and acetoacetic acid. The basic salts of polybasic organic carboxylic acid include mono-, di- or tri-sodium, potassium, magnesium, calcium or aluminium salts of saturated polybasic organic carboxylic acids such as oxalic acid, malonic acid, succinic acid, glutaric acid, adipic acid and pimelic acid, of unsaturated polybasic organic carboxylic acids such as maleic acid and fumaric acid, and of other polybasic organic carboxylic acids such as meso-oxalic acid, malic acid, oxalacetic acid and citric acid. Among these, trisodium citrate is preferable. The basic salts of uric acids include sodium salts of glucuronic acid, galacturonic acid or their polymers such as alginic acid or peptic acid and dihydroxyaluminium aminoacetate sodium alginate. The inorganic salt antacids include calcium hydrogenphosphate, disodium hydrogenphosphate, dipotassium hydrogenphosphate, magnesium hydrogenphosphate, calcium carbonate, sodium carbonate, potassium carbonate, sodium hydrogen carbonate, aluminium carbonate, magnesium carbonate, potassium metasilicate, magnesium aluminate metasilicate, sodium metasilicate, synthetic aluminium silicate, magnesium silicate, aluminium silicate, magnesium aluminate silicate, magnesium-bismuth aluminate silicate, magnesium oxide, alumina-magnesium hydroxide, magnesium peroxide, magnesium hydroxide, aluminium hydroxide, synthetic hydrotarphite, aluminium phosphate and others. Especially, calcium phosphate and magnesium phosphate are preferable. Each of these stabilizers may be used alone or in the form of a mixture. […] A method for stabilization of 16-membered ring macrolide antibiotics of the present invention will be described in detail. The afore-mentioned various 16-membered ring macrolide antibiotics, for example 9-hydroxy 16-membered ring macrolides such as midecamycin, 3"-propionylleucomycin A5 and josamycin and 9-acyloxy 16-membered ring macrolides such as 9,3"-diacetylmidecamycin and 9-propionyljosamycin show extremely poor residual rates when added to an acidic solution of the Japanese Pharmacopoeia lst liquid (pH 1.2) and allowed to stand. That is, the 9hydroxy 16-membered ring maclorides decompose in a short time to by-produce their iso, demycarosyl and/or isodemycarosyl forms. The 9-acyloxy 16-membered ring macrolides decompose, too, to by-produce their 9-deacyl, 9-deacyl-iso, demycarosyl, 9-deacyl-demycarosyl or 9-deacyl-iso-demycarosyl forms. […]

[3] = AUC after oral administration of tablets to beagle dogs (bioassay of blood); format: in vivo; conditions: for AUC at 6 h: dog, blood, po, 500 mg
Description: An amount of the dissolution accelerators used, showing pH 2.5-4 in an aqueous solution will be described in detail. […] In all of these cases, the elution rate of 3"-propionylleucomycin A5 is less than 60%. […] In order to obtain their good absorbability, generally, it is necessary to use the pH at which the elution rate is favorable. […] The accelerators need to be used in 5-100 mg in formulating preparations. It is particularly preferred that these dissolution accelerators, for example tartaric acid and citric acid are used in a total amount of 40-100 mg at single administration. That is, one tablet is allowed to contain about 40-100 mg in the administration of one tablet a time, and about 20-50 mg each in two tablets a time. It is also particularly preferred, when the antibiotics are applied orally in the form of powders, fine granules, capsules, granules or dry syrups, that the accelerators are used in approximately 40-100 mg to the 16-membered ring macrolide antibiotics given in a 200 mg potency a time. It is suitable for preservation that these dissolution accelerators are used coated with film-forming substances by a microcapsulization technique using the accelerators as core materials.
To a mixture comprising TMS-19-Q and light anhydrous silicic acid, 10% w/w HPMC aqueous solution was added. Then the mixture was kneaded, dried and sieved by the use of a 24 mesh sieve to obtain Granule A.
To a mixture comprising glycine, citric acid anhydride and light silicic acid, 5% w/w HPMC aqueous solution was added as binder, and the mixture was made into granules by fluidized bed method (FB method). Then the granules were dried and sieved through 24 mesh screen to obtain Granule B.
To Granule A and Granule B, L-HPC and Avicel PH301 (to be adjusted by an amount of citric acid added: 52.7-12.7 g) and magnesium stearate were added and mixed. Then, the mixed powder was molded by pressure to the size of 14×8 mm and tablets were obtained, each of which (430 mg) containing 100 mg potency of TMS-19-Q 170 mg glycine and citric acid (0, 10, 20, 30 and 40 mg).

- elution rate with 0, 10 or 20 mg of citric acid ([1]; 200 mg potency, 340 mg glycine, pH 5.87, 5.51, 5.18): less than 60%
- elution rate with 20 mg or 10 mg of citric acid ([1]; 340 mg glycine, citric acid 20 mg or 10 mg, after 15-minute stirring): 45-55%
- elution rate with 40 mg or more of citric acid ([1]; 340 mg glycine): ≥ 95%
- elution rate with 40 mg or more of citric acid ([1]; 340 mg glycine, listed as 3"-propionylleucomycin A5): more than 95%
- elution rate with 0 mg of citric acid ([1]; 340 mg glycine, no citric acid, after 15-minute stirring): 10%
- elution rate with 0 mg of tartaric acid ([1]; 340 mg glycine, no tartaric acid, after 15-minute stirring): 10%
- elution rate with 20 mg or 10 mg of tartaric acid ([1]; 340 mg glycine, tartaric acid 20 mg or 10 mg, after 15-minute stirring): 40-55%
- elution rate with 40 mg or more of tartaric acid ([1]; 340 mg glycine, tartaric acid 40 mg or more, value at 15 minutes): ≥ 95%
- time within which elution was nearly completed (citric acid) ([1]; citric acid, solutions whose pH is equal to or less than 4.23): ≤ 15 min
- time within which elution was nearly completed (tartaric acid) ([1]; tartaric acid, solutions whose pH is equal to or less than 4.09): ≤ 15 min
- improvement of stability compared with control, 30 minutes ([2]; 150 mg of glycine, value at 30 minutes): 30%
- stability in 1st solution (in words) ([2]; 1st solution pH 1.2, no stabilizer): extremely unstable
- stability with tri-sodium citrate (in words) ([2]; 150-300 mg of tri-sodium citrate, 1st solution): very much enhanced
- stability with calcium phosphate (in words) ([2]; 150-400 mg of calcium phosphate, 1st solution): very much enhanced
- stability with glycine (in words) ([2]; 150-900 mg of glycine, 1st solution): stabilized well
- stability with L-aspartic acid monosodium salt (in words) ([2]; 200-500 mg of Asp.Na, 1st solution): very much enhanced
- stability with monosodium glutamate (in words) ([2]; 200-500 mg of Glu.Na, 1st solution): very much enhanced
- degraded at 0.5 h ([2]; jp 1st solution, 1st solution pH 1.2, 37° C., 30 minutes, no stabilizer, read-out: decomposites (balance), 30 minutes): 39.5%
- remaining at 0.5 h ([2]; jp 1st solution, 1st solution pH 1.2, 37° C., 30 minutes, no stabilizer, read-out: residual amount after contact with 1st solution, 30 minutes): 60.5%
- degraded at 1 h ([2]; jp 1st solution, 1st solution pH 1.2, 37° C., 60 minutes, no stabilizer, read-out: decomposites (balance), 60 minutes): 41.4%
- remaining at 1 h ([2]; jp 1st solution, 1st solution pH 1.2, 37° C., 60 minutes, no stabilizer, read-out: residual amount after contact with 1st solution, 60 minutes): 58.6%
- stability with a larger amount of glycine (in words) ([2]; larger amount of glycine (up to 900 mg)): hardly decomposed
- AUC versus amount of citric acid (in words) ([3]; beagles, oral, citric acid 30-40 mg): reached saturation
- AUC at 6 h ([3]; read-out: AUC (area under a blood level versus time curve), 0 mg citric acid): 11800 ng·h/mL
- AUC at 6 h ([3]; read-out: AUC (area under a blood level versus time curve), 10 mg citric acid): 12300 ng·h/mL
- AUC at 6 h ([3]; read-out: AUC (area under a blood level versus time curve), 20 mg citric acid): 17000 ng·h/mL
- AUC at 6 h ([3]; read-out: AUC (area under a blood level versus time curve), 30 mg citric acid): 20500 ng·h/mL
- AUC at 6 h ([3]; read-out: AUC (area under a blood level versus time curve), 40 mg citric acid): 20900 ng·h/mL
Compound: CCCC(=O)OC1C(C)OC(OC2C(C)OC(OC3C(CC=O)CC(C)C(O)/C=C/C=C/CC(C)OC(=O)CC(O)C3OC)C(O)C2N(C)C)CC1(C)OC(=O)CC (centres unmarked) [TMS-19-Q, 3"-propionyl leucomycin A5]
- blood concentrations or absorbability (in words) ([3]; beagles, oral, citric acid more than 30 mg per tablet): Good blood concentrations or absorbability
